# ± gives the standard deviation of the averaged measurements.
# What was measured:
# LENVATINIB = compound: COc1cc2nccc(Oc3ccc(NC(=O)NC4CC4)c(Cl)c3)c2cc1C(N)=O [LENVATINIB]; experiment: surviving fraction relative to DMSO-only wells; higher = less growth inhibition; settings: exposure time: 5 days
# How it was run: (§1)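 Viability was scored with CellTiter-Glo luminescence and normalised to the median of DMSO-only wells as surviving fraction. Beforehand, log-phase tumour cell lines were seeded at 250–500 cells per well in 384-well plates, allowed 24 hours, and exposed continuously for five days to inhibitors at 0.5, 1, 5, 10, 50, 100, 500 and 1000 nM. Only lines whose three screens gave replicate Pearson r >0.7 and median Z' >0.3 were kept.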
# [1] = compound: C[C@@H]1CN(CC(=O)Nc2ccc3c(c2)Cc2cccc(-c4cc(=O)cc(N5CCOCC5)o4)c2S3)C[C@H](C)O1; experiment: as above; settings: exposure time: 5 days
# How it was run: as §1
Test System,surviving fraction (LENVATINIB; 0.5 nM),surviving fraction (LENVATINIB; 1 nM),surviving fraction (LENVATINIB; 5 nM),surviving fraction (LENVATINIB; 10 nM),surviving fraction (LENVATINIB; 50 nM),surviving fraction (LENVATINIB; 100 nM),surviving fraction (LENVATINIB; 500 nM),surviving fraction (LENVATINIB; 1000 nM),surviving fraction ([1]; 0.5 nM),surviving fraction ([1]; 1 nM),surviving fraction ([1]; 5 nM),surviving fraction ([1]; 10 nM),surviving fraction ([1]; 50 nM),surviving fraction ([1]; 100 nM),surviving fraction ([1]; 500 nM),surviving fraction ([1]; 1000 nM)
MDAMB134 BREAST,1.12 ± 0.079,1.08 ± 0.044,1.16 ± 0.069,1.09 ± 0.011,1.29 ± 0.13,1.32 ± 0.14,0.972 ± 0.15,1.05 ± 0.057,1.04 ± 0.082,0.967 ± 0.073,0.955 ± 0.11,0.926 ± 0.04,0.678 ± 0.16,0.714 ± 0.052,0.7305 ± 0.0021,0.63 ± 0.049
MDAMB157 BREAST,0.97 ± 0.13,1.03 ± 0.081,0.993 ± 0.071,1.06 ± 0.11,0.934 ± 0.045,0.873 ± 0.069,0.7437 ± 0.0042,0.621 ± 0.045,0.905 ± 0.074,0.972 ± 0.025,1.01 ± 0.057,1.09 ± 0.059,1 ± 0.028,1.05 ± 0.046,0.896 ± 0.022,0.89 ± 0.093
MDAMB231 BREAST,1.01 ± 0.029,1.02 ± 0.025,1.03 ± 0.033,1.02 ± 0.011,0.988 ± 0.012,1.02 ± 0.032,0.913 ± 0.032,0.882 ± 0.025,0.965 ± 0.015,0.955 ± 0.016,0.993 ± 0.035,0.988 ± 0.023,0.955 ± 0.016,0.981 ± 0.021,0.73 ± 0.027,0.617 ± 0.025
MDAMB361 BREAST,0.893 ± 0.098,0.873 ± 0.034,0.959 ± 0.032,0.865 ± 0.035,0.941 ± 0.08,0.978 ± 0.066,0.928 ± 0.063,0.763 ± 0.063,0.778 ± 0.042,0.885 ± 0.074,0.776 ± 0.078,0.756 ± 0.083,0.591 ± 0.036,0.765 ± 0.056,0.548 ± 0.045,0.529 ± 0.071
MDAMB436 BREAST,0.949 ± 0.032,1.01 ± 0.11,0.946 ± 0.04,0.976 ± 0.039,1.01 ± 0.11,0.907 ± 0.015,1.04 ± 0.077,0.932 ± 0.033,0.892 ± 0.043,0.962 ± 0.095,0.922 ± 0.027,0.928 ± 0.058,0.858 ± 0.067,0.805 ± 0.068,0.761 ± 0.029,0.611 ± 0.066
MDAMB453 BREAST,1.11 ± 0.035,1.11 ± 0.068,1.12 ± 0.019,1.13 ± 0.043,1.12 ± 0.037,1.15 ± 0.049,0.663 ± 0.016,0.52 ± 0.035,1.02 ± 0.027,0.937 ± 0.054,0.994 ± 0.023,0.966 ± 0.035,0.937 ± 0.023,0.897 ± 0.046,0.9723 ± 0.0063,0.988 ± 0.039
MDAMB468 BREAST,1.04 ± 0.059,1.12 ± 0.047,1.11 ± 0.092,1.09 ± 0.016,1.14 ± 0.086,1.1 ± 0.1,1.1 ± 0.056,1.05 ± 0.05,0.975 ± 0.015,0.921 ± 0.024,0.951 ± 0.026,1 ± 0.025,0.935 ± 0.018,1 ± 0.091,0.824 ± 0.12,0.756 ± 0.076
MFM223 BREAST,1.16 ± 0.069,1.08 ± 0.12,1.09 ± 0.077,1.12 ± 0.024,1.06 ± 0.13,0.813 ± 0.053,0.336 ± 0.02,0.29 ± 0.014,1.17 ± 0.17,1.2 ± 0.037,1.17 ± 0.052,1.19 ± 0.02,0.935 ± 0.1,0.869 ± 0.12,0.885 ± 0.035,0.794 ± 0.1
MG63 BONE,1.02 ± 0.075,1.03 ± 0.06,1.08 ± 0.065,0.999 ± 0.032,0.965 ± 0.061,0.865 ± 0.065,0.666 ± 0.059,0.584 ± 0.029,1.03 ± 0.032,1.03 ± 0.038,1.076 ± 0.0081,1.1 ± 0.04,1.06 ± 0.02,1.08 ± 0.028,0.971 ± 0.025,0.919 ± 0.022
MHM BONE,1.033 ± 0.0097,1.01 ± 0.024,1.025 ± 0.0038,1.074 ± 0.0044,1.05 ± 0.033,1.03 ± 0.037,0.981 ± 0.019,0.937 ± 0.05,1.03 ± 0.024,1.01 ± 0.055,1.05 ± 0.012,1.05 ± 0.021,1.08 ± 0.0062,1.1 ± 0.018,1.08 ± 0.024,1.07 ± 0.032

# — the supplement of paper PMC6045584
